IC50 data for 23 molecules are collected here from patent publication US20240409557A1, “5,6-FUSED AND 6,6-FUSED BICYCLIC ALCOHOLS AND ETHERS AND COMPOSITIONS FOR USE AS 15-PROSTAGLANDIN DEHYDROGENASE MODULATORS” (AMGEN INC., priority 2023, published 2024).

What is called IC50 is the concentration that gives 50% inhibition.

For assay [1], the target named is T1, 15-PGDH in A549 cells (Homo sapiens, UniProt P15428).
T1 construct: endogenous in cells; host or cells: A549
T1 sequence (P15428 1-266): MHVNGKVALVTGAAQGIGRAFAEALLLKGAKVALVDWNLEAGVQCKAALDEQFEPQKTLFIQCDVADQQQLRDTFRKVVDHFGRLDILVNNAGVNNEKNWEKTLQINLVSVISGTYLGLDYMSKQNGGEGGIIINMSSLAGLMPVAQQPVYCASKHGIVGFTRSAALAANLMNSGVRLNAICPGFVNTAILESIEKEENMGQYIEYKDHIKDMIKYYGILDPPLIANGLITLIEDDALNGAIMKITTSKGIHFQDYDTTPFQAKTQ
As to the kind of experiment: A549 cellular 15-PGDH assay (PGE2 accumulation, HTRF). Type of assay: cell-based. Conditions: interleukin-stimulated, inhibitor 24 hrs, PGE2 by competitive HTRF, read-out: A549 Cell Assay IC50. In short, it runs like this:
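Supernatant PGE2 was quantified by competitive HTRF, in which sample PGE2 blocks FRET between a europium cryptate-labelled antibody and labelled PGE2. It came from A549 epithelial cells induced with IL-13. IC50s were calculated from the inversely proportional signal.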
Background: Time-resolved FRET reads energy transfer from a long-lived donor to a nearby acceptor.

The target in assay [2] is T2, human recombinant 15-PGDH (Homo sapiens, UniProt P15428).
T2 sequence (P15428 1-266): T1 sequence (P15428 1-266)
As to the kind of experiment: Recombinant 15-PGDH enzymatic inhibition assay (PGDH-Lumi, NADH signal). Type of assay: biochemical. Conditions: recombinant 15-PGDH; 15 min pre-incubation, 60 min reaction with PGE2 and NAD+, NADH signal. Summed up:
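Buffer 50 mM Tris pH 7.5 with 0.01% Tween-20 and […]; compound, 22 two-fold dilutions, pre-incubated with enzyme 15 min before substrate.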

Take `CO[C@]1(C(F)(F)F)C[C@@](O)(c2cc3cnc(-c4cnc5nn(C)cc5c4)nc3s2)C1` (single isomer, unassigned) [Compound C113C, cis-3-methoxy-1-(2-(2-methyl-2H-pyrazolo[3,4-b]pyridin-5-yl)thieno[2,3-d]pyrimidin-6-yl)-3-(trifluoromethyl)cyclobutanol]: the values for the IC50 in assay [1] and in assay [2] were 7.19 nM and 1.42 nM, respectively.

Take `CO[C@]1(C(F)(F)F)C[C@](O)(c2cc3cnc(-c4cnc5nn(C)cc5c4)nc3s2)C1` (single isomer, unassigned) [Compound C113T, trans-3-methoxy-1-(2-(2-methyl-2H-pyrazolo[3,4-b]pyridin-5-yl)thieno[2,3-d]pyrimidin-6-yl)-3-(trifluoromethyl)cyclobutanol]: the IC50 in assay [1] is 1.11 nM; in assay [2], 0.426 nM.

As for `Cn1cc2cc(-c3ncc4cc([C@]5(O)C[C@]6(CC6(F)F)C5)sc4n3)cnc2n1` (single isomer, unassigned) [Compound C114C, cis-1,1-difluoro-5-(2-(2-methyl-2H-pyrazolo[3,4-b]pyridin-5-yl)thieno[2,3-d]pyrimidin-6-yl)spiro[2.3]hexan-5-ol], the IC50 in assay [1] worked out at 0.821 nM; in assay [2], 0.323 nM.

As for `Cn1cc2cc(-c3ncc4cc([C@]5(O)C[C@@]6(CC6(F)F)C5)sc4n3)cnc2n1` (single isomer, unassigned) [Compound C114T, trans-1,1-difluoro-5-(2-(2-methyl-2H-pyrazolo[3,4-b]pyridin-5-yl)thieno[2,3-d]pyrimidin-6-yl)spiro[2.3]hexan-5-ol], the IC50 came to 0.669 nM in assay [1] and 0.488 nM in assay [2].

Regarding `Cn1cc2cc(-c3ccc4nc([C@]5(O)C[C@]6(CC6(F)F)C5)sc4n3)cnc2n1` (single isomer, unassigned) [Compound C115C, cis-1,1-difluoro-5-(5-(2-methyl-2H-pyrazolo[3,4-b]pyridin-5-yl)[1,3]thiazolo[5,4-b]pyridin-2-yl)spiro[2.3]hexan-5-ol], the IC50 in assay [1] came to 0.978 nM; in assay [2], 0.393 nM.

With `Cn1cc2cc(-c3ccc4nc([C@]5(O)C[C@@]6(CC6(F)F)C5)sc4n3)cnc2n1` (single isomer, unassigned) [Compound C115T, trans-1,1-difluoro-5-(5-(2-methyl-2H-pyrazolo[3,4-b]pyridin-5-yl)[1,3]thiazolo[5,4-b]pyridin-2-yl)spiro[2.3]hexan-5-ol], the IC50 came out at 1.39 nM in assay [1] and 0.513 nM in assay [2].

As to `CO[C@]1(C)C[C@@](O)(c2cc3cnc(-c4cnc5nn(C)cc5c4)nc3s2)C1` (single isomer, unassigned) [Compound C118C, cis-3-methoxy-3-methyl-1-(2-(2-methyl-2H-pyrazolo[3,4-b]pyridin-5-yl)thieno[2,3-d]pyrimidin-6-yl)cyclobutanol], the figures for the IC50 in assay [1] and in assay [2] were 2.21 nM and 0.557 nM, respectively.

With `CO[C@]1(C)C[C@](O)(c2cc3cnc(-c4cnc5nn(C)cc5c4)nc3s2)C1` (single isomer, unassigned) [Compound C118T], the IC50 in assay [1] worked out at 2.73 nM; in assay [2] it was 0.864 nM.

As for `CO[C@]1(C)C[C@@](O)(c2cc3cnc(-c4cnc5c(c4)nnn5C)nc3s2)C1` (single isomer, unassigned) [Compound C121C], the values for the IC50 in assay [1] and in assay [2] were 23.8 nM and 10.4 nM, respectively.

As to `CO[C@]1(C)C[C@](O)(c2cc3cnc(-c4cnc5c(c4)nnn5C)nc3s2)C1` (single isomer, unassigned) [Compound C121T, trans-3-methoxy-3-methyl-1-(2-(3-methyl-3H-[1,2,3]triazolo[4,5-b]pyridin-6-yl)thieno[2,3-d]pyrimidin-6-yl)cyclobutanol], the IC50 in assay [1] amounted to 13.4 nM; in assay [2], 6.52 nM.

Regarding `CO[C@]1(C)C[C@@](O)(c2nc3ccc(-c4cnc5nn(C)cc5c4)nc3s2)C1` (single isomer, unassigned) [Compound C125C, cis-3-methoxy-3-methyl-1-(5-(2-methyl-2H-pyrazolo[3,4-b]pyridin-5-yl)[1,3]thiazolo[5,4-b]pyridin-2-yl)cyclobutanol], the IC50 in assay [1] worked out at 2.9 nM; in assay [2] it was 0.817 nM.

For the molecule `CO[C@]1(C)C[C@](O)(c2nc3ccc(-c4cnc5nn(C)cc5c4)nc3s2)C1` (single isomer, unassigned) [Compound C125T, trans-3-methoxy-3-methyl-1-(5-(2-methyl-2H-pyrazolo[3,4-b]pyridin-5-yl)[1,3]thiazolo[5,4-b]pyridin-2-yl)cyclobutanol], the IC50 in assay [1] was 5.42 nM; in assay [2] it was 0.75 nM.

For `Cn1cc2cc(-c3ccc4ccc([C@H](O)C5CC(F)(F)C5)cc4n3)cnc2n1` (single isomer, unassigned) [Compound D1R], the IC50 in assay [1] was 0.0822 nM; in assay [2], 0.605 nM.

For the molecule `Cn1cc2cc(-c3ccc4ccc([C@@H](O)C5CC(F)(F)C5)cc4n3)cnc2n1` (single isomer, unassigned) [Compound D1S], the figures for the IC50 in assay [1] and in assay [2] were 0.656 nM and 1.17 nM, respectively.

In the case of `Cn1nnc2cc(-c3ccc4ccc([C@H](O)C5CCOCC5)cc4n3)cnc21` (single isomer, unassigned) [Compound D3R], the IC50 stood at 289 nM in assay [1] and 21700 nM in assay [2].

For the molecule `Cn1nnc2cc(-c3ccc4ccc([C@@H](O)C5CCOCC5)cc4n3)cnc21` (single isomer, unassigned) [Compound D3S], the results for the IC50 in assay [1] and in assay [2] were > 750 nM and 11500 nM, respectively.

In the case of `Cn1cc2cc(-c3ccc4ccc([C@H](O)C5CCOCC5)cc4n3)cnc2n1` (single isomer, unassigned) [Compound D4R], the figures for the IC50 in assay [1] and in assay [2] were 187 nM and 243 nM, respectively.

On to `Cn1cc2cc(-c3ccc4ccc([C@@H](O)C5CCOCC5)cc4n3)cnc2n1` (single isomer, unassigned) [Compound D4S], for which the IC50 in assay [1] came to 305 nM; in assay [2], 426 nM.

Turning to `Cn1cc2cc(-c3ccc4cc([C@H](O)C5CC(F)(F)C5)ccc4n3)cnc2n1` (single isomer, unassigned) [Compound D7R], the IC50 in assay [1] is 61.8 nM; in assay [2], 24.7 nM.

On to `Cn1cc2cc(-c3ccc4cc([C@@H](O)C5CC(F)(F)C5)ccc4n3)cnc2n1` (single isomer, unassigned) [Compound D7S], for which the IC50 stood at 168 nM in assay [1] and 265 nM in assay [2].

`Cn1cc2cc(-c3cc(-c4ccnn4C)c4cc(C(O)C5CCC5)sc4n3)cnc2n1` (stereo not shown) [Compound B2, cyclobutyl(6-(2-methyl-2H-pyrazolo[3,4-b]pyridin-5-yl)-4-(1-methyl-1H-pyrazol-5-yl)thieno[2,3-b]pyridin-2-yl)methanol]: the IC50 in assay [1] is 1.04 nM; in assay [2], 1.51 nM.

`CC(O)c1cc2c(-c3ccnn3C)cc(-c3cnc4nn(C)cc4c3)nc2s1` (stereo not shown) [Compound B6, 1-(4-(1-methyl-1H-pyrazol-5-yl)-6-(2-methyl-2H-pyrazolo[3,4-b]pyridin-5-yl)thieno[2,3-b]pyridin-2-yl)ethan-1-ol]: the figures for the concentration for half-maximal inhibition (IC50) in assay [1] and in assay [2] were 39.4 nM and 2.93 nM, respectively.

Turning to `CC(O)c1cc2c(C3CC3)cc(-c3cnc4nn(C)cc4c3)nc2s1` (stereo not shown) [Compound B11, 1-(4-cyclopropyl-6-(2-methyl-2H-pyrazolo[3,4-b]pyridin-5-yl)thieno[2,3-b]pyridin-2-yl)ethanol], the figures for the IC50 in assay [1] and in assay [2] were 31.9 nM and 7.12 nM, respectively.
